Test results taken from patent US12605390B2, “Treatment of cancer and inhibition of metastasis” (Celex Oncology Innovations Limited, priority 2017, dated 2026).
Like-named read-outs stand apart in the source and are kept apart here.

Key:
neonatal Nav1.5 = assay: Immunocytochemistry of nNav1.5 protein expression in MDA-MB-231 cells; type: cell-based, human; conditions: 10 μM, 24 hour treatment, normoxic and hypoxic conditions
Description: Cells were pre-treated with either 10 μM Eleclazine or DMSO in both normoxic and hypoxic conditions for 24 hours. The following day, round 13 mm coverslips were placed into 24-well plates and incubated with 0.5 ml poly-L-lysine for 20 minutes. The solution was aspirated and 2×10^4 pre-treated cells were added on top of each coverslip. The wells were filled up to 0.5 ml with the respective drug solutions and cells were left to settle onto the coverslips in normoxic and hypoxic conditions overnight.
Cells were washed with PBS and fixed by incubating coverslips with 0.5 ml 4% PFA (in PBS) for 15 minutes. Coverslips were then washed in PBS three times for 5 minutes. Half of the samples were permeabilised in 0.1% Saponin/PBS (4 minutes) followed by three 5 minute washes in PBS. Cells were blocked for 1 hour with 0.5 ml 5% BSA/PBS (pH 7.4). Coverslips were incubated with 70 μL NESOpAb (primary antibody specific for neonatal Nav1.5; 1:100 dilution) for 1 hour in a humidity chamber (room temperature). Three 5 minute PBS washes rinsed off residual NESOpAb and the secondary antibody (goat anti-rabbit IgG Alexa Fluor 568, 1:100 dilution) was administered for 1 hour in the dark. […]
Imaging was conducted on a Zeiss axiovert 200 inverted microscope. […] The corrected total cell fluorescence was quantified using ImageJ.

MDA-MB-231 cells [1] = assay: Lateral motility (wound heal) assay; type: cell-based, human; conditions: 10 μM, hypoxic conditions
Description: In order to determine lateral motility, a “wound-heal (“scratch”)” test was carried out, in which a scratch 504 of […] was made through the layer of cells, as shown in FIG. 5(b) which is a side sectional view of the cell culture dish. During the period of 24 hours following the formation of the scratch, the cells moved into the gap.
10^6 cells were plated in each 35×10 mm dish and kept in normoxic conditions to settle overnight. Each dish was marked by 15 parallel vertical lines and 3 non-overlapping horizontal lines. The media was refreshed and three wounds were made along the marked vertical lines using a 1 ml Gilson pipette tip. Floating cells were removed by 3 consecutive media washes and adherent cells were treated with 1 ml of the respective drug solution (10 μM Eleclazine/DMSO). The initial wound width (W0) was measured at 45 fixed points (where the vertical lines cross the wounds) using the graticule on a phase-contrast microscope (×10 magnification). Cells were then incubated in both normoxic and hypoxic conditions, with drug solutions being replaced every 24 hours. Wound width was measured every 12 hours and the motility of this breast cancer cell line was analysed using the “motility index” (MI=1-(Wt/W0)). A motility index of 1 accounts for complete wound closure, whereas MI=0 represents zero cell movement. […]

MDA-MB-231 cells [2] = assay: MTT proliferation assay; type: cell-based, human; conditions: 48 hours; for effect on cell proliferation versus negative controls: 10 μM, hypoxic and normoxic conditions
Description: Cells were plated at 2×10^4 cells/ml in 24-well plates (Becton-Dickinson) and allowed to settle overnight. The cells were then treated for the required time of incubation (24 hours+), with medium changes every 24 hours. At the end of the treatment, the medium was removed, and this was followed by the colorimetric 3-[4,5-dimethylthiazol-2-yl]-2,5-diphenyltetrazolium bromide ([…]) assay (Grimes et al., 1995). Briefly, 0.1 ml MU (5 mg/ml made up in the growth medium) and 0.4 ml growth medium was added in each well and the plate was incubated for 3-4 hours at 37° C. The medium was then removed from the chambers and replaced with 0.5 ml dimethyl sulfoxide (DMSO) and 0.063 ml glycine buffer (0.1 M glycine and 0.1 M NaCl; pH 10.5). Absorbance at 570 nm was determined 15 minutes after the addition of the glycine buffer. Results were calculated as means of nine repeats of each of the treatment vs. control spectrophotometer readings from individual invasion wells.
Proliferation was indirectly measured using MTT (3-(4,5-dimethylthiazolyl-2)-2,5-diphenyltetrazolium). In principle, MTT is taken up and processed by metabolically active cells, which produce formazan as a by-product. Formazan is a purple dye which can be quantified on a spectrophotometer, providing a link between absorbance readings (570 nm) and cell number.
Cells were plated in 24-well plates at a density of 2×10^4 cells per well and pre-treated with 1 ml of the respective drug solutions (see FIG. 5.) for 48 hours in hypoxia and normoxia. 0.1 ml of MU (1 mg/ml) diluted in 0.4 ml of media was administered to each well, followed by 4 hours of incubation in dark, normoxic conditions (MU is light—sensitive). The solution was subsequently aspirated and 0.5 ml of 99.9% DMSO was added in combination with 75 μL glycine buffer. The dye was able to dissolve in DMSO during a 15 minute—incubation on a shaking platform at 150 cycles/minute. The absorbance was read using ELX800 Universal Microplate Reader (BioTek Instruments) with the background measuring 0.04. […]

MDA-MB-231 cells [3] = type: cell-based, human; conditions: 20 μM, 48 hours
Description: Cells were seeded at a density of 5×10^4 cells/ml in 35 mm Falcon tissue culture dishes. After treatment with a given drug, the medium was removed and replaced with 800 μl of growth medium and 200 μl 0.4% trypan blue (Sigma, Dorset, UK) and incubated for 10 minutes in the incubator. The trypan blue was removed and the cells were washed once with 3 ml growth medium. For each treatment, cells from 30 random fields of view were counted under 100× magnification. The number of dead cells, stained blue, was counted in each field of view. The data were expressed as percentages of living cells out of the total number of cells in given fields of view. The percentages were averaged and differences between control and treatment were compared from at least three independent experiments.
Cell viability and therefore drug toxicity was determined using the trypan blue assay. The procedure follows the principle that viable cells surrounded by an intact double membrane cannot absorb the trypan blue dye, whereas dead and fragmented cells can. […]
The solution was subsequently replaced with 0.2 ml of 0.4% trypan blue (Sigma-Aldrich) and 0.8 ml of media. […] Cell viability was determined by counting the proportion of viable and dead cells in 30 fields of view on each dish (Zeiss Axiovert 25 phase contrast microscope, ×40 magnification).

persistent current = biological target: T1, persistent current (Homo sapiens, UniProt Q14524); assay: Patch-clamp (data not shown); type: cell-based; conditions: 10 μM
T1 construct: transient and persistent sodium current, using the highly invasive human breast cancer cell line MDA-MB-231; endogenous in cells; host or cells: MDA-MB-231

MDA-MB-231 cells [4] = assay: Matrigel invasion assay under hypoxia; type: cell-based, human
Description: This assay is an extension of the transverse migration assay described above. To “invade”, the cells need both (i) to move as in the transverse migration assay and (ii) secrete a proteolytic enzyme to digest their surroundings. The ability of cells to invade neighbouring tissues by enzyme secretion was therefore assessed by using a layer of Matrigel™ (BD Biosciences) spread across the porous membrane of a Transwell® insert.
50 μl Matrigel™ was seeded at a 1:7 dilution (10 mg/ml stock) onto the inserts and left overnight. Prior to seeding with the cells the Matrigel™ was rehydrated using medium with no additions. This medium was removed prior to seeding the cells.
Cells were plated in a 1-5% FBS chemotactic gradient overnight (12 hours).
Invaded cells were fixed for 15 minutes with ice-cold methanol. […] The inserts were swabbed again and then washed in water and allowed to dry. Cells were then counted using twelve separate fields of view per insert (×200 magnification). If the difference in the average number of cells invading the two control inserts was more than 40%, the experiment was rejected.
The matrigel solidified at 37° C. normoxia overnight and was hydrated at 37° C. normoxia for 3 hours using 0.5 ml FBS-free media. 300 μL of media containing 5% FBS was administered to the lower chamber and the same amount of media containing 1% FBS was added to the upper chamber (transwell filters). 2×10^4 cells were added to the 1% solution, allowing their invasion through the matrigel along the chemotactic gradient. Cells were left to settle and invade under hypoxic conditions overnight.

MDA-MB-231 cells [5] = conditions: 24 hours

For `O=C1c2cc(-c3ccc(OC(F)(F)F)cc3)ccc2OCCN1Cc1ncccn1` [eleclazine, 4-(pyrimidin-2-ylmethyl)-7-(4-(trifluoromethoxy)phenyl)-3,4-dihydrobenzo[f][1,4]oxazepin-5(2H)-one], the “nNav1.5 protein expression, corrected total cell fluorescence (CTCF)” value (neonatal Nav1.5) was “statistically significant reduction”, the “reduction of lateral motility” value (MDA-MB-231 cells [1]; after 12 hours) was 5% and the “reduction of lateral motility” value (MDA-MB-231 cells [1]; after 48 hours) was 30%. The “effect on cell proliferation versus negative controls” value (MDA-MB-231 cells [2]) was “no statistically significant difference”, the “average proportion of viable cells per field of view” value (MDA-MB-231 cells [3]) was 99.96% and the “effect on persistent current” value (persistent current) was “effectively blocked”. The effect on invasiveness (MDA-MB-231 cells [4]; 0.5 μM, hypoxia (1% O2), 24 h pre-incubation, invasion over 16 h) was “does not affect invasiveness”, the “number of cells invading, median (interquartile range)” value (MDA-MB-231 cells [4]; 1 μM, hypoxia (1% O2), 24 h pre-incubation, invasion over 16 h, control 175.0 (113 & 255)) was 131.5 (100 & 175) and the reduction of invasiveness (MDA-MB-231 cells [4]; 5 μM, hypoxia) was “approximately 50%”. For the same compound, the “effect on invasiveness (preliminary assays)” value (MDA-MB-231 cells [4]; 10 μM, hypoxic conditions) was “drastically reduced”.
`CC[N+](CC)(CC)CC` [TEA] was tested, and the “reduction of cell proliferation” value (MDA-MB-231 cells [2]; 2 mM, positive control) was “approximately 50%”.
With `OO` [hydrogen peroxide] the “mean detachment negative pressure, change versus untreated cells” value (MDA-MB-231 cells [5]; 1 μM) was “approximately −9%”, the “mean detachment negative pressure, change versus untreated cells” value (MDA-MB-231 cells [5]; 10 μM) was “approximately −14%” and the “mean detachment negative pressure, change versus untreated cells” value (MDA-MB-231 cells [5]; 100 μM) was “approximately −20%”.
For `COc1ccccc1OCC(O)CN1CCN(CC(=O)Nc2c(C)cccc2C)CC1` (centres unmarked) [ranolazine, reference compound], the “effect on cell proliferation versus negative controls” value (MDA-MB-231 cells [2]) was “no significant effect” and the effect on invasiveness (MDA-MB-231 cells [4]; 5 μM, hypoxia (1% O2), 24 h pre-incubation, invasion over 16 h) was “suppress invasiveness significantly”.
With `NC1=N[C@H](O)[C@H]2[C@H]3O[C@]4(O)O[C@@H]([C@@H](O)[C@@]2(N1)[C@@H]4O)[C@]3(O)CO` [TTX, tetrodotoxin, reference compound] the effect on invasiveness (MDA-MB-231 cells [4]) was “decreases”.
